Reference: patent EP2687213B1, “Solid forms comprising (+)-2-[1-(3-ethoxy-4-methoxyphenyl)-2-methylsulfonylethyl]-4-acetylaminoisoindoline-1,3-dione, compositions thereof, and uses thereof” (CELGENE CORPORATION, priority 2008, dated 2009)

What was measured:
[1] = system: subjects with moderate to severe plaque-type psoriasis; experiment: Phase 2 randomized double-blind placebo-controlled study in moderate to severe plaque-type psoriasis; assay type: in vivo, human
Protocol: This phase 2, multicenter, randomized, double-blind, placebo-controlled, parallel-group, dose-comparison study evaluated the efficacy and safety of Compound A in subjects with moderate to severe plaque-type psoriasis who were candidates for systemic therapy.
This study included a 12-week treatment phase followed by a 4-week observational follow-up phase. A total of 260 subjects were randomized to receive Compound A 20 mg BID, Compound A 20 mg QD, or placebo for 12 weeks. The primary endpoint for this study was the proportion of subjects treated with Compound A who achieved a 75% reduction in Psoriasis Area and Severity Index score ("PASI-75") at week 12/last treatment in reference to the baseline visit. Last treatment is defined as the last PASI assessment completed during the 12-week treatment phase.

[2] = biological target: T1, PDE6 from bovine retinal rod outer segments (Bos taurus, UniProt P11541+P23439); experiment: PDE6 enzyme assay; assay type: biochemical; conditions: from PDE inhibition data of Table 1
T1 construct: PDE6 from bovine retinal rod outer segments; from tissue; host or cells: bovine retinal rod outer segments
T1 sequence (P11541 2-856 limits assumed): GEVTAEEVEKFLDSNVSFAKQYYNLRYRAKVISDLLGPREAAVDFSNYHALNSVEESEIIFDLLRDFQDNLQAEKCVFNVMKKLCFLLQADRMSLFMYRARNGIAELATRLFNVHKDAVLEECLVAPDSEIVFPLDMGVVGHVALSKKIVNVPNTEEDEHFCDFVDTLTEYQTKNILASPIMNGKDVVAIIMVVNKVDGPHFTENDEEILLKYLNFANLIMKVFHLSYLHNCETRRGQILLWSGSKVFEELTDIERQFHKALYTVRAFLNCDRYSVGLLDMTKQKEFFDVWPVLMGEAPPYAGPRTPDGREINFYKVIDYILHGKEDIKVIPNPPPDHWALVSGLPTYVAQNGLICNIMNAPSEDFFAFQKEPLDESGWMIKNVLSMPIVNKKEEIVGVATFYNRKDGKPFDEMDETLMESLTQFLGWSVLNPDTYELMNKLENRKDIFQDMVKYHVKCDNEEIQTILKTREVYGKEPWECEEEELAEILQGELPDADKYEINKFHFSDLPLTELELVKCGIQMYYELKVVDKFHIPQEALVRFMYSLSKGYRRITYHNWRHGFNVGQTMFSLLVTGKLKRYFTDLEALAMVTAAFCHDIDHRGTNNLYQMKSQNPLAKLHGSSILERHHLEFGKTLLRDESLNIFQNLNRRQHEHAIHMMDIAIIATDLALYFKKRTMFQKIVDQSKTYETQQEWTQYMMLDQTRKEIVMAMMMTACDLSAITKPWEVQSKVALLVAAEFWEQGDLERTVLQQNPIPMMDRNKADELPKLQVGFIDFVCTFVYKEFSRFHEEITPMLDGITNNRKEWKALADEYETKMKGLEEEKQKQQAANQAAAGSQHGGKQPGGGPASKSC
T1 sequence (P23439 2-850 limits assumed): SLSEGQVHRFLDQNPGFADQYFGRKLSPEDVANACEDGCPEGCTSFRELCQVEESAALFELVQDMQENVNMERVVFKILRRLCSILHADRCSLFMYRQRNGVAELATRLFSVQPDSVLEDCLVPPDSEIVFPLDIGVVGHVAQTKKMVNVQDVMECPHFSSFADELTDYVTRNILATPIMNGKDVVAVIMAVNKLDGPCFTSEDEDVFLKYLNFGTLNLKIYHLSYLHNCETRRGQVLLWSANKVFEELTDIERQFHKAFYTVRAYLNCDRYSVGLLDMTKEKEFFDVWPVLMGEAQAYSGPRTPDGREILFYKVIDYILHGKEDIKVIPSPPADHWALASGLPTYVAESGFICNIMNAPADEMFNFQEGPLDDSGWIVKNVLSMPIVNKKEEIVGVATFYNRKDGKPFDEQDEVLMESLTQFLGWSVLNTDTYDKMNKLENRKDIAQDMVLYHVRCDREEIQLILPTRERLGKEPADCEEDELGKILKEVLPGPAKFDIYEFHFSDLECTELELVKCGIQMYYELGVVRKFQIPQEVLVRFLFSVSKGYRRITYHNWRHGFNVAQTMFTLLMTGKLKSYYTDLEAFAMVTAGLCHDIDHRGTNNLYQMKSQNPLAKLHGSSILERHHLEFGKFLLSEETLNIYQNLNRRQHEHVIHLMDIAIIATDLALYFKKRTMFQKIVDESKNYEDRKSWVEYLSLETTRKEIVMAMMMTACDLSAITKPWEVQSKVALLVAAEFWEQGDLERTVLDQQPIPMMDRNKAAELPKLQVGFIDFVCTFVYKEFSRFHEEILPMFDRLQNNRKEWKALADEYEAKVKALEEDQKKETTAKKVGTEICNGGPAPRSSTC

[3] = biological target: PDE5 from human platelets (Homo sapiens, UniProt O76074); experiment: PDE5 enzyme assay; assay type: biochemical; conditions: from PDE inhibition data of Table 1
[4] = system: patients with severe plaque-type psoriasis
bovine PDE1 = experiment: PDE1 enzyme assay; assay type: biochemical; conditions: from PDE inhibition data of Table 1
[5] = biological target: PDE3 from human platelets (Homo sapiens, UniProt Q14432); experiment: PDE3 enzyme assay; assay type: biochemical; conditions: from PDE inhibition data of Table 1
[6] = Equilibrium aqueous solubility in pH 7.4 buffer; assay type: physicochemical
Protocol: Equilibrium solubilities were measured in pH 7.4 aqueous buffer. The pH 7.4 buffer was prepared by adjusting the pH of a 0.07 M NaH2PO4 solution to 7.4 with 10 N NaOH. The ionic strength of the solution was 0.15. At least 1 mg of powder was combined with 1 ml of buffer to make >1 mg/ml mixture. These samples were shaken for >2 hours and left to stand overnight at room temperature. The samples were then filtered through a 0.45-µm Nylon syringe filter that was first saturated with the sample. The filtrate was sampled twice, consecutively. The filtrate was assayed by HPLC against standards prepared in 50% methanol.

[7] = 20 mg orally daily, number of patients
[8] = responders (≥ 20% epidermal thickness reduction), 8 patients, Day 29

Chain of PDE3 from human platelets (Q14432 whole entry): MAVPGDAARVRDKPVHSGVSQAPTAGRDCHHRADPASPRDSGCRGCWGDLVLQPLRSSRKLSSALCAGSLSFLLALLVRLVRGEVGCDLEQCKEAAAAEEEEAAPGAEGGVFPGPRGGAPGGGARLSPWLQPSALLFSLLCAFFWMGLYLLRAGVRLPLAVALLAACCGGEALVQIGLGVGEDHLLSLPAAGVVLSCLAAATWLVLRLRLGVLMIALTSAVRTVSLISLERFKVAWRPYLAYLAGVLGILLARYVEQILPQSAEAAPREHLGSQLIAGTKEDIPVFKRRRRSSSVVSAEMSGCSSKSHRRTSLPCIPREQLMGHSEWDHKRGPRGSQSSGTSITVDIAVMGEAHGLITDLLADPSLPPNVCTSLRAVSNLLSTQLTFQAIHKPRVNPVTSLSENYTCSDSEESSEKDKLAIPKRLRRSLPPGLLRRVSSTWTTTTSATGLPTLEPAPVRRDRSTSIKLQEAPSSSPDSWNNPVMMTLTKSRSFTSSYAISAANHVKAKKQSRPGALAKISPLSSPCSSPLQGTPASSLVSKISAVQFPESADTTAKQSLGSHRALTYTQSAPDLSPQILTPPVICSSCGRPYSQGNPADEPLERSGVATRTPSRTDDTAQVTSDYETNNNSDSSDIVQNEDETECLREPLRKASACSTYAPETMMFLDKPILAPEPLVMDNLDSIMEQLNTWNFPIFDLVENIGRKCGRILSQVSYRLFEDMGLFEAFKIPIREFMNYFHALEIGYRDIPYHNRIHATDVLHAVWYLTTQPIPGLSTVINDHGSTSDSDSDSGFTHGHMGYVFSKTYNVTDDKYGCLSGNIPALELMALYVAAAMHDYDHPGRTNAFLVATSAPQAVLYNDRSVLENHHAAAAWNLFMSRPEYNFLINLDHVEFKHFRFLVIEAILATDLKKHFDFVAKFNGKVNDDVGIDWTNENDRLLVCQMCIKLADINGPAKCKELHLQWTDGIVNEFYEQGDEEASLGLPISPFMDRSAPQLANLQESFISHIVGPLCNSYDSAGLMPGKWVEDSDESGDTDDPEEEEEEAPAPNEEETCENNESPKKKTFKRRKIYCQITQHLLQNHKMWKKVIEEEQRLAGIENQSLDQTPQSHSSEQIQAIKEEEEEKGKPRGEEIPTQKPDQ

SMILES: CCOc1cc(C(CS(C)(=O)=O)N2C(=O)c3cccc(NC(C)=O)c3C2=O)ccc1OC (single isomer, unassigned; (+)) [Compound A, (+)-2-[1-(3-ethoxy-4-methoxyphenyl)-2-methylsulfonylethyl]-4-acetylaminoisoindoline-1,3-dione]
- psoriasis flare during the observational follow-up period ([1]; 20 mg BID group, 4-week follow-up): No subjects
- study drug-related serious adverse events ([1]; 20 mg BID or 20 mg QD, 12 weeks): No study drug-related serious adverse events were reported
- tolerability and safety (overall conclusion) ([1]; 12 weeks of treatment): well tolerated and safe
- PDE Specificity Ratio PDE4/PDE6 [2]: >40000 fold
- PDE Specificity Ratio PDE4/PDE5 [3]: >30000 fold
- patients with abnormal HLA-DR that had normal HLA-DR at Day 29 [4, 7]: Two
- patients with abnormal ICAM-1 at baseline that had normal ICAM-1 at Day 29 [4, 7]: Three
- patients with abnormal K16 at baseline that had normal K16 at Day 29 [4, 7]: one
- patients with abnormal fillagrin at baseline that had normal fillagrin at Day 29 [4, 7]: three
- safety (overall conclusion) ([4]; 20 mg p.o. QD for 29 days): safe
- Percentage Reduction of Key Inflammatory Markers at Day 29: CD11c, Dermis ([4]; Responder, signed change): -18.50%
- Percentage Reduction of Key Inflammatory Markers at Day 29: CD11c, Epidermis ([4]; Responder, signed change): -40.16%
- Percentage Reduction of Key Inflammatory Markers at Day 29: CD83+, Dermis ([4]; Responder, signed change): -25.86%
- Percentage Reduction of Key Inflammatory Markers at Day 29: CD83+, Epidermis ([4]; Responder, signed change): -32.50%
- Percentage Reduction of Key Inflammatory Markers at Day 29: T-cells, Dermis ([4]; Responder, signed change): -28.79%
- Percentage Reduction of Key Inflammatory Markers at Day 29: T-cells, Epidermis ([4]; Responder, signed change): -42.56%
- decrease of dermal T-cells [4, 8]: 28.79%
- decrease of epidermal T-cells [4, 8]: 42.56%
- CD11c cells reduced in the dermis ([4]; responders, Day 29): 18.50%
- CD11c cells reduced in the epidermis ([4]; responders, Day 29): 40.16%
- Mean reduction from baseline in dermal CD83+ cells ([4]; responders, Day 29): 25.86%
- Mean reduction from baseline in epidermal CD83+ cells ([4]; responders, Day 29): 32.50%
- deaths ([4]; treatment and follow-up phases): No deaths were reported
- PDE Specificity Ratio PDE4/PDE1 (bovine PDE1): >500 fold
- PDE Specificity Ratio PDE4/PDE3 [5]: >1200 fold
- aqueous solubility greater than the racemic mixture [6]: 3.5 fold
